In ChEMBL document CHEMBL1201862, “PubChem BioAssay data set” (2004):
Activity calls are given as the source filed them.

What was measured:
[1] = target: T1, Dual specificity protein phosphatase 6 (Rattus norvegicus, UniProt Q64346); assay type: functional
T1 sequence (Q64346 whole entry): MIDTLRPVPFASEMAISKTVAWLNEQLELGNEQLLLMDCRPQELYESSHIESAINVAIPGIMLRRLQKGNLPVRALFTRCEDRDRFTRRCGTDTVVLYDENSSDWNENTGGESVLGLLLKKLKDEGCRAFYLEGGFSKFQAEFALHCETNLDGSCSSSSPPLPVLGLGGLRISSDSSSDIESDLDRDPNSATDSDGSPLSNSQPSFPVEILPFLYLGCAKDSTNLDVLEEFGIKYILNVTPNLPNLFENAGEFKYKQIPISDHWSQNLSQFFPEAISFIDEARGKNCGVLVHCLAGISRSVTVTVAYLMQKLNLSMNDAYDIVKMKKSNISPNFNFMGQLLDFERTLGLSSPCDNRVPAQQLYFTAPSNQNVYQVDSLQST

[2] = target: Glyceraldehyde-3-phosphate dehydrogenase (Homo sapiens, UniProt P04406)
[3] = target: T1, Dual specificity protein phosphatase 6
[4] = target: T2, Tyrosine-protein phosphatase non-receptor type 7 (Homo sapiens, UniProt P35236); assay type: functional
T2 sequence (P35236 whole entry): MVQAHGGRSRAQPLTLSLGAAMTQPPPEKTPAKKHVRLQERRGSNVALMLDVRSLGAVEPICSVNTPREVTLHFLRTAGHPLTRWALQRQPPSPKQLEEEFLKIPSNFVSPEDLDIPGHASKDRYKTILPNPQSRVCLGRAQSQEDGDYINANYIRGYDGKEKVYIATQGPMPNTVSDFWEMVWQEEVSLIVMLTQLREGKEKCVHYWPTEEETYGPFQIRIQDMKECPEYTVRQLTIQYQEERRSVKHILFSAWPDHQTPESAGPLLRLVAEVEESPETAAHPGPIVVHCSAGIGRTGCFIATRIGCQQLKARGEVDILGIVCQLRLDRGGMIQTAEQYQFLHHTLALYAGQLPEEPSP

[5] = target: T3, Hexokinase HKDC1 (Homo sapiens, UniProt Q2TB90); experiment: SAR analysis of small molecule inhibitors of hexokinase domain containing I (HKDC1). [Related pubchem assays (depositor defined):AID493160, AID493190]; assay type: functional
T3 sequence (Q2TB90 whole entry): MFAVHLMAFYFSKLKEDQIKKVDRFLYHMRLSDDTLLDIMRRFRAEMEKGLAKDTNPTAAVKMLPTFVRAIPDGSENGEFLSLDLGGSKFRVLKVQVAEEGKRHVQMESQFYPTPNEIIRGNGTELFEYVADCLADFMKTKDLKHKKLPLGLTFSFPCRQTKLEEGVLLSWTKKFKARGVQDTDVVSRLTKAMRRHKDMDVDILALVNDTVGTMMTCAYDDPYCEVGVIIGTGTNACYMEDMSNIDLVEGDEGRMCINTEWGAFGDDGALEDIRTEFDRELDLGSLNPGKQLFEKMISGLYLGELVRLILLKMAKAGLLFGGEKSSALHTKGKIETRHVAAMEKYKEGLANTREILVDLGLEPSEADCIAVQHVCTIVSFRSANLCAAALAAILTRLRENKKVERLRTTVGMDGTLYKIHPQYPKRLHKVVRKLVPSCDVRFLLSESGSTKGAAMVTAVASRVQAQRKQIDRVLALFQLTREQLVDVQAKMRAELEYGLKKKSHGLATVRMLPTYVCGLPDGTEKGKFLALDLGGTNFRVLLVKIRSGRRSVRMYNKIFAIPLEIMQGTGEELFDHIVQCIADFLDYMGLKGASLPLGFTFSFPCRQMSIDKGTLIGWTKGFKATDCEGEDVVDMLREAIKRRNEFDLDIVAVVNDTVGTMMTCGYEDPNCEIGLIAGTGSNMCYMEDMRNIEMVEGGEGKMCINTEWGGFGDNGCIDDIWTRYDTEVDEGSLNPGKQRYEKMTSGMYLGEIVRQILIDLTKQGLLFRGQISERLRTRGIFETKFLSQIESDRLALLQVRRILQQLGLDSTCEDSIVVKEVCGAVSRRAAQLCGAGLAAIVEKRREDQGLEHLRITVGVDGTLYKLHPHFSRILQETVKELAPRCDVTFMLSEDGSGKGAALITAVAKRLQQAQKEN

[6] = target: T4, Hexokinase-1 (Homo sapiens, UniProt P19367); experiment: SAR analysis of small molecule inhibitors of hexokinase domain containing I (HKDC1) in the hexokinase 1 selectivity assay. [Related pubchem assays (depositor defined):AID493160, AID493190]; assay type: functional
T4 sequence (P19367 whole entry): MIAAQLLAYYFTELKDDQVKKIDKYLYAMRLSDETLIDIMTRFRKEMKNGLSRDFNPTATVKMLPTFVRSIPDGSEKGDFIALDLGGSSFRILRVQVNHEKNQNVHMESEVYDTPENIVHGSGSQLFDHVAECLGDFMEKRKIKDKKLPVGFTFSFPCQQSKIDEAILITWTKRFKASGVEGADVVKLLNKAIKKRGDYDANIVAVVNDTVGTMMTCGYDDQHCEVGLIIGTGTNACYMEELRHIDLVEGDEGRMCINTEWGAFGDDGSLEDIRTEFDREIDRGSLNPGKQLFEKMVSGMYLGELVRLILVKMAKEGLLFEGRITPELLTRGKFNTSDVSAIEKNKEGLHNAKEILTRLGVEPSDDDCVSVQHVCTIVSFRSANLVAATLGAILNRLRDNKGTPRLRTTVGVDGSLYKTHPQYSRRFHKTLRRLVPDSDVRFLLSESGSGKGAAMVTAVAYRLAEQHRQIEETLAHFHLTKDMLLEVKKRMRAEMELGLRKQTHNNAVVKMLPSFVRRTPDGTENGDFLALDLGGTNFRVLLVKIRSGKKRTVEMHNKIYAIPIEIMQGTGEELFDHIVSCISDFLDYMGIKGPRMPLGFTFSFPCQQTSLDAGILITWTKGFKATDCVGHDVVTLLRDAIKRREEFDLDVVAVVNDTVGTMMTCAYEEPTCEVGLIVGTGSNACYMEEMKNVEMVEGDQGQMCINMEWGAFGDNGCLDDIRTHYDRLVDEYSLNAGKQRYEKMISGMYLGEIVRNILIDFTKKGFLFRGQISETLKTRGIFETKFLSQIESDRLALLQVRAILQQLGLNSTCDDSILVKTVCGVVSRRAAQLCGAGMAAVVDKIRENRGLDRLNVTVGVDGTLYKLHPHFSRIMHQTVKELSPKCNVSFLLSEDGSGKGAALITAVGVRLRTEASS

[7] = test system: INS1; experiment: beta-cell survival under cytokine stress – INS-1E, ATP luminescence, dry powder, dose response (AID 488844); assay type: functional, cell-based; conditions: Rattus norvegicus
[8] = suppression of NO production in INS-1E cells – cell-based, Griess absorbance, dry powder, set 3, dose response (AID 488870); assay type: functional; conditions: Rattus norvegicus
[9] = test system: INS1; experiment: suppression of NO production in INS-1E cells – cell-based, Griess absorbance, dry powder, set 2, dose response (AID 488868); assay type: functional; conditions: Rattus norvegicus
[10] = test system: Jurkat; experiment: blockers of NF-kB activation in T cells – Jurkat, luciferase reporter, luminescence, B- and T-cell, dose response (AID 489004); assay type: functional, cell-based; conditions: Homo sapiens;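 also: NF-kB luciferase reporter Jurkat cells stimulated with PMA plus ionomycin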
[11] = target: Galanin receptor type 3 (Homo sapiens, UniProt O60755); experiment: Fluorescence-based cell-based primary high throughput dose response assay to identify antagonists of the Galanin Receptor 3 (GalR3).; assay type: functional
[12] = cells; assay type: functional, cell-based; conditions: HEK-CNG
[13] = HEK-293T viability loss, compound-treated – cell-based, uHTS hits, cytotoxicity control for B/T-cell NF-kB inhibitor project, dose response (AID 489019); assay type: functional;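 also: IC50 reflects cytotoxicity as loss of cell viability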
[14] = target: Latent membrane protein 1 (Human herpesvirus 4 (strain B95-8), UniProt P03230); experiment: LMP1 TES1 pathway selectivity over dsRED control – imaging, HEK293T, dual-color eGFP/dsRED, cherry-picks, selectivity assay for LMP1 NF-kB inhibitor project, dose response (AID 588398); assay type: functional, cell-based
[15] = test system: HEK293; experiment: EBV LMP1 TES2 canonical NF-kB signalling blockers – cell-based, HEK293, luciferase, cherry-pick, dose response (AID 588343); assay type: functional; conditions: Homo sapiens
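For EC50 in this document: target is galanin receptor GalR3 read with a cAMP biosensor in HEK293 cells.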

Chain of Latent membrane protein 1 (P03230 whole entry): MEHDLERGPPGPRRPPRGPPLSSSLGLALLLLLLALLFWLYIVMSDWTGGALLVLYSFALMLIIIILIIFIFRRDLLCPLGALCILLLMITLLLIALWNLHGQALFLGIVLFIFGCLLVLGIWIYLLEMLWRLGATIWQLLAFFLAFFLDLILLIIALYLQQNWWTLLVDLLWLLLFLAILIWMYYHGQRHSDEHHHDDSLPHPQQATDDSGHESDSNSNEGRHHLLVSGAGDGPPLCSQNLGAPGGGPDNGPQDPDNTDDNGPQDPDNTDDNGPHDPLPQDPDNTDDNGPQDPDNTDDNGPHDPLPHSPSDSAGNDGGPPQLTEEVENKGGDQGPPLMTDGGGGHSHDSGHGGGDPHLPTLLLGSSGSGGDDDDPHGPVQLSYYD
Chain of Galanin receptor type 3 (O60755 whole entry): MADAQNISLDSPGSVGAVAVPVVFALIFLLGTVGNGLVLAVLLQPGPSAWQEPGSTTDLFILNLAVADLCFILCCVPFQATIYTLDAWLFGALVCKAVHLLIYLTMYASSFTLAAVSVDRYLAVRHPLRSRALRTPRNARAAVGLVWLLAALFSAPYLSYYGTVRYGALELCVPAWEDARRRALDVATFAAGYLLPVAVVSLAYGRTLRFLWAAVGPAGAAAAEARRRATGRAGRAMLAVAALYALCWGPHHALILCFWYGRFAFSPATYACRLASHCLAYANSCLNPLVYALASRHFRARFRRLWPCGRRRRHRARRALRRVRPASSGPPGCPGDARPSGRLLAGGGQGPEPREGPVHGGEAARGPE
Chain of Glyceraldehyde-3-phosphate dehydrogenase (P04406 whole entry): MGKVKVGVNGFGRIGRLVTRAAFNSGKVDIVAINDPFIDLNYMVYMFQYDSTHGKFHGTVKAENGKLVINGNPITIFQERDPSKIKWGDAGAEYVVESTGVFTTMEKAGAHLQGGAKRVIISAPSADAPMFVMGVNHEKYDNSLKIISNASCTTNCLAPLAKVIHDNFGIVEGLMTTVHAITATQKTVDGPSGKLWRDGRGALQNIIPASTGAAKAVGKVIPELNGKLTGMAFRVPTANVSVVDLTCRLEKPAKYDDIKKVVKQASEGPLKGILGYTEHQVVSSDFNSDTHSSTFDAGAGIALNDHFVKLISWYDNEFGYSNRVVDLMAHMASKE

With `COc1ccc(-n2c(=O)nc(NCCc3cccc(Cl)c3)[nH]c2=O)cc1` the IC50 [1] was > 100 µM (inactive), the IC50 [2] was > 100 µM (not active) and the IC50 [3] was > 100 µM (inactive). The IC50 [4] was > 100 µM (not active).

For `O=c1c2ccccc2nc(/C=C\c2ccccc2Cl)n1Cc1ccccc1`, the IC50 [5] was > 80 µM (inactive) and the IC50 [6] was > 80 µM (inactive).

In the case of `O=S(=O)(Nc1cc(Sc2nc[nH]n2)c(O)c2ccccc12)c1ccc(Cl)cc1`, the IC50 [5] is reported as 9.86 µM (active) and the IC50 [6] is reported as 65.3 µM (inactive).

In the case of `C[C@@H]1CN([C@@H](C)CO)C(=O)c2cccc(NC(=O)Nc3cccc4ccccc34)c2O[C@H]1CN(C)S(=O)(=O)c1ccc(F)cc1`, the AC50 [7] is reported as 7.41 µM (active), the AC50 [8] is reported as 77.2 µM (active) and the AC50 [9] is reported as 138 µM (active).

With `COc1cc2c(cc1OC)[C@@H]1C(=O)c3ccc4c(c3O[C@@H]1CO2)C[C@H](C(C)C)O4` the IC50 [10] was > 80 µM (inactive), the IC50 [11] was 0.0154 µM (active) and the EC50 [12] was > 29.9 µM (inactive). The IC50 [13] was > 80 µM (inactive).

With `COc1cc([C@@H]2c3cc4c(cc3[C@@H](O[C@@H]3O[C@@H]5CO[C@@H](C)O[C@H]5[C@H](O)[C@H]3O)[C@H]3COC(=O)[C@H]23)OCO4)cc(OC)c1O` [ETOPOSIDE] the AC50 [14] was 0.4 µM (active) and the AC50 [15] was 0.784 µM (active).
